# Reference: patent US8895600B2, “Non peptidic 14-3-3 inhibitors and the use thereof” (Università degli Studi di Siena, priority 2010, dated 2014)
# Legend:
# [1] = system: Ba/F3 cells expressing the T315I Bcr-Abl mutation; assay: Clonogenic assay (0.9% methylcellulose), Ba/F3 T315I Bcr-Abl; assay type: cell-based, murine; settings: Ba/F3 p210Bcr-Abl T315I, dose reducing cell clonogenic potential to 50%
# From the text: (§1) Parental pro-B murine cell line Ba/F3 and clones expressing the wt and T315I and E255K-mutated Bcr-Abl constructs were kindly donated by Michael W Deininger (Department of Hematology and Clinical Oncology, Health and Science University, Cancer Institute, Portland, Oreg., USA). […] Indirect immuno-magnetic labeling (mini-MACS from Milteny Biotech, Bergish Gladback, Germany) was used to isolate CD34+ hematopoietic progenitors from bone marrow samples of 3 CML patients in blast crisis who developed IM resistance. Patient informed consent to use bone marrow samples for our experimental studies was approved by the Ethical Committee of S. Orsola-Malpighi Hospital (Bologna, Italy). The content of CD34+ cells in each sample was measured by cytofluorimetric analysis of CD34 expression with a FacScan (Becton Dickinson, Franklin Land, PI, USA).
# (§2) Briefly, the authors assessed the reduction of colony (aggregates containing >50 cells generated in 0.9% methylcellulose supplemented with 30% FCS) number in Bcr-Abl-expressing Ba/F3 cell lines and CD34+ in presence of BV02 increasing doses after 7 or 14 day incubation, respectively, at 37° C. in fully humidified atmosphere and 5% CO2. Linear and non linear regression analyses were used to calculate BV02 LD50 in Bcr-Ablexpressing Ba/F3 cell lines and CD34+ progenitors from CML patients, respectively.
# (§3) PI uptake was measured by mean of a FACScan flow cytometer set at >580 nm and a dedicated software (both from Beckton Dickinson, San Jose, Calif., USA). Caspase-8 activity was detected with a commercial kit (Carboxyfluorescein FLICA Apoptosis Detection kits from Immunochemistry Technologies LLC, Bloomington, Minn., USA) according to manufacturer instructions. […] Apoptosis was quantified as the level of fluorescence emitted from FLICA probes bound to caspases. […] Caspase-8 activity was quantified by mean of a dedicated software (DIVA from Becton Dickinson). Cell response to BV-01 and BV-02 was evaluated in clonogenic assays (0.9% methylcellulose additioned with drug scalar doses) (see Methods above for methodological details).
# 14-3-3σ = molecular target: T1, 14-3-3σ (Homo sapiens, UniProt P31947); assay: Transferred NOE (tr-NOEs) NMR binding experiment; settings: 298K; protein concentration 10 fold less than ligand
# T1 sequence (P31947 1-248): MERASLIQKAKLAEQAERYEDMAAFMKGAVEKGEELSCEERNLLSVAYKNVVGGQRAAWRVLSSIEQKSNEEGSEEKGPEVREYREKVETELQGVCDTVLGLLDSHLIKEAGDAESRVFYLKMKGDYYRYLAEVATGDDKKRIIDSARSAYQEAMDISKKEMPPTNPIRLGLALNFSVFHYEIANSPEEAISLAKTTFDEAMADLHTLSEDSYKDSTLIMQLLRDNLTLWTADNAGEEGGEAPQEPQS
# Description: The binding ability of BV-01 was analyzed by transferred Nuclear Overhauser Enhancement experiments (tr-NOEs). Experiments were recorded (at 298K on Bruker Avance 600) both on the free ligand and in the presence of protein in concentration 10 fold less than ligand. In the tr-NOEs experiments, only ligands in fast exchange between the bound and the free form are observed. Since the NOE effects are directly related to the size of the molecule in solution, by binding to the protein, the ligands NOE change in intensity and appearance allowing an easy detection of the binding.
# [2] = system: Ba/F3 Parental cells (lacking Bcr-Abl); assay: Clonogenic assay (0.9% methylcellulose), parental Ba/F3; assay type: cell-based, murine; settings: dose reducing cell clonogenic potential to 50%
# From the text: (§4) Parental pro-B murine cell line Ba/F3 and clones expressing the wt and T315I and E255K-mutated Bcr-Abl constructs were kindly donated by Michael W Deininger (Department of Hematology and Clinical Oncology, Health and Science University, Cancer Institute, Portland, Oreg., USA). They were maintained in RPMI medium (Gibco, Paisley, 9 JPET#172536 UK) supplemented with 10% FCS (Gibco), 1% I-glutamine (Sigma, St. Louis, Miss., USA) and 10% WEHI 3 conditioned medium as source of IL-3 when required. […] The content of CD34+ cells in each sample was measured by cytofluorimetric analysis of CD34 expression with a FacScan (Becton Dickinson, Franklin Land, PI, USA). […] BV02 cytotoxicy was assayed in clonogenic assays, the best in vitro technique to quantify drug impact on cell reproductive integrity.
# as §2, with “Linear and non linear regression analyses were used to calculate BV02 LD50 in Bcr-Ablexpressing Ba/F3 cell lines and CD34+ progenitors from CML patients, respectively.” left out
# (§5) Cell cycle distribution was performed on 1×10^6 cells fixed overnight in 70% ethanol and treated with 1 μg/μL 11 JPET#172536 PI and RNAse (Sigma) at 37° C. for 30′. […] Apoptosis was quantified as the level of fluorescence emitted from FLICA probes bound to caspases. […]
# [3] = system: Ba/F3 cells expressing the Bcr-Abl mutation coding for E255K; assay: Clonogenic assay (0.9% methylcellulose), Ba/F3 E255K Bcr-Abl; assay type: cell-based, murine; settings: Ba/F3 p210Bcr-Abl E255K; dose reducing cell clonogenic potential to 50%
# From the text: as §4
# as §2, with “Linear and non linear regression analyses were used to calculate BV02 LD50 in Bcr-Ablexpressing Ba/F3 cell lines and CD34+ progenitors from CML patients, respectively.” left out
# as §5
# [4] = system: Ba/F3 cells expressing the wild type Bcr-Abl; assay: Clonogenic assay (0.9% methylcellulose), Ba/F3 wt Bcr-Abl; assay type: cell-based, murine; settings: Ba/F3 p210Bcr-Abl WT, dose reducing cell clonogenic potential to 50%
# From the text: as §1, §2, §3
# [5] = system: c-Abl / 14-3-3σ signalling in Ba/F3 cells expressing T315I Bcr-Abl mutation; assay: Western blot and IP/immunoblotting of sub-cellular fractions, T315I Bcr-Abl Ba/F3; assay type: cell-based, murine
# Description: as §2, with “respectively. […]” for “respectively.”
# Proteins or IP products obtained through overnight incubation with primary antibodies in Buffer D (250 mM NaCl, 15 mM MgCl2 40 mM Hepes, 60 mM glycerophosphate supplemented with protease inhibitors) were resolved in SDSPAGE. […] Signals were visualized by the enhanced chemo-luminescence detection system ECL from Pierce (Rockford, Ill., USA). Signal intensities in single blots obtained from three individual experiments were quantified by mean of a dedicated software (Launch VisionWorks LS, Upland, Calif., USA).
# (§6) The statistical significance of differences in signal intensities relative to cell treatments was assessed by mean of paired Student's t-test; p<0.05 was kept as limit for statistical significance.
# [6] = system: Ba/F3 cells expressing T315I mutation; assay: Apoptosis induction, cytofluorimetric Annexin V and PI uptake, T315I; assay type: cell-based, murine; settings: IM 1 μM for 24 h, BV02 5 μM for 24 h
# Description: as §2, with “respectively. Apoptosis induction and involved signals were assayed in Bcr-Abl-expressing Ba/F3 cell lines after 24 h exposure to 1 μM IM and 5 μM BV02 by means of cytofluorimetric analysis of Annexin V (Hoffmann-La Roche, Basel, SW) and PI (Sigma) uptake, Western blot and IP/immunoblotting analyses, according to published methods (Mancini, 2009).” for “respectively.”
# [7] = system: Ba/F3 cells expressing the wild type Bcr-Abl protein; assay: Apoptosis induction, cytofluorimetric Annexin V and PI uptake, wt Bcr-Abl; assay type: cell-based, murine; settings: IM 1 μM for 24 h, BV02 5 μM for 24 h
# [8] = system: CD34+ cells from bone marrow of CML patients in blast crisis with T315I mutation; assay: Clonogenic assay on CD34+ progenitors of IM-resistant CML patients; assay type: cell-based, human; settings: three CML patients in blast crisis
# From the text: as §4, with “required. Indirect immuno-magnetic labeling (mini-MACS from Milteny Biotech, Bergish Gladback, Germany) was used to isolate CD34+ hematopoietic progenitors from bone marrow samples of 3 CML patients in blast crisis who developed IM resistance.” for “required.”
# as §2, with “Linear and non linear regression analyses were used to calculate BV02 LD50 in Bcr-Ablexpressing Ba/F3 cell lines and CD34+ progenitors from CML patients, respectively.” left out
# [9] = system: c-Abl / 14-3-3σ signalling in wt Bcr-Abl-expressing Ba/F3 cells; assay: Western blot and IP/immunoblotting of sub-cellular fractions, wt Bcr-Abl Ba/F3; assay type: cell-based, murine; settings: 24 h, 1 μM IM or 5 μM BV02; for interaction between c-Abl and 14-3-3σ: IP/immunoblotting
# Description: Nuclear lysates were obtained from naked nuclei recovered from 2×10^7 cells kept in buffer B (10 mM NaCl, 5 mM MgCl2, 10 mM phosphate buffer and 0.1% Tergitol-type detergent NP40 [all from Sigma] supplemente with protease inhibitors) by means of 3 sonication rounds (10′ pulses using a Hight Intensity Ultrasonic Processor/Sonicator from Cole Parmer [Vernon Hills, Ill., USA] equipped with 2 mm tips). Mitochondrial membranes were separated from whole cell lysates by 30′ centrifugation at 14,000 g in 2 mL buffer C (20 mM Hepes pH 7.5, 1.5 mM MgCl2, 10 mM KCl, 1 mM EDTA, 1 mM EGTA, 1 mM dithiothreitol, 0.1% PMS and protease inhibitors in 250 mM sucrose) at 4° C.
# Proteins or IP products obtained through overnight incubation with primary antibodies in Buffer D (250 mM NaCl, 15 mM MgCl2 40 mM Hepes, 60 mM glycerophosphate supplemented with protease inhibitors) were resolved in SDSPAGE. Gels were then transferred onto nitrocellulose membranes (Schleicher & Schuel, Dassel, Germany), labelled with primary and secondary antibodies in TBS with 5% BSA (Sigma) and 0.1% Tween20 (Sigma). The antibodies were purchased from Upstate Biotechnology (Lake Placid, N.Y., USA), Cell Signalling (Danvers, Mass., USA) and Santa Cruz Biotechnology (Santa Cruz, Calif., USA). Signals were visualized by the enhanced chemo-luminescence detection system ECL from Pierce (Rockford, Ill., USA). Signal intensities in single blots obtained from three individual experiments were quantified by mean of a dedicated software (Launch VisionWorks LS, Upland, Calif., USA).
# as §6
smiles,measurement,setting,value
CCCCCCOC(=O)c1ccc(Nc2c([N+](=O)[O-])cc(C(=O)O)cc2[N+](=O)[O-])cc1 [BV-01],LD50,[1],1.70 µM
same,tr-NOEs pattern (binding to 14-3-3σ),14-3-3σ,weak interaction
same,LD50,[2],1.89 µM
same,LD50,[3],1.28 µM
same,LD50,[4],1.41 µM
Cc1c(NC(=O)c2cc(C(=O)O)ccc2C(=O)O)c(=O)n(-c2ccccc2)n1C [BV-02],"c-Abl release from 14-3-3σ, relocation and apoptotic events",[5]; T315I Ba/F3,elecited all above mentioned events
same,Tyr245 phosphorylation of normal and Bcr-rearranged c-Abl,[5]; T315I Ba/F3 after exposure to BV02,slight increase
same,apoptosis induction (impact on survival),[6],statistically significant impact
same,LD50,[1],1.47 µM
same,LD50,[1]; listed as BV02,1.47 ± 0.12 µM
same,apoptosis induction (impact on survival),[7],statistically significant impact
same,cytotoxicity in CD34+ cells (survival curves),[8],confirmed
same,LD50,[2],1.08 µM
same,interaction between c-Abl and 14-3-3σ,[9]; cytoplasm,mediates c-Abl release from 14-3-3σ
same,interaction between c-Abl and 14-3-3σ,"[9]; cytoplasm, listed as BV02",reduction
same,c-Abl (145 kDa) level,[9]; cytoplasm,reduction
same,c-Abl interaction with caspase 9,[9]; cytoplasm,increase
same,c-Abl phosphorylation at Tyr245,[9]; cytoplasm,not affected
same,caspase 9 (p35) and caspase 8 (p18) activated fragments,[9]; cytoplasm,increase
same,levels of 14-3-3σ,[9]; cytoplasm,left steady
same,phosphorylation of p210 Bcr-Abl at Tyr245,[9]; cytoplasm,did not significantly affect
same,"c-Abl (145 and 60 kDa), caspase 9 (p35), caspase 8 (p18) and t-Bid (p15) at mitochondrial membranes",[9]; mitochondrial membranes,significantly raised
same,c-Abl (145 and 120 kDa) and p27kip1 in the nuclear compartment,[9]; nuclear compartment,significantly increased
same,LD50,[3],1.21 µM
same,LD50,[4],1.04 µM
same,LD50,[4]; listed as BV02,1.04 ± 0.09 µM
"Cc1ccc(NC(=O)c2ccc(CN3CCN(C)CC3)cc2)cc1Nc1nccc(-c2cccnc2)n1 [Imatinib, reference compound]",apoptosis induction (impact on survival),[6],not on survival of Ba/F3 cells expressing T315I mutation
